20 compounds from ChEMBL document CHEMBL1144263, “Synthesis and acetylcholinesterase inhibition of derivatives of huperzine B” (Bioorg Med Chem Lett, 2005) can be followed below.

The target in one assay is T1, Acetylcholinesterase (Rattus norvegicus, UniProt P37136).
T1 sequence (P37136 whole entry): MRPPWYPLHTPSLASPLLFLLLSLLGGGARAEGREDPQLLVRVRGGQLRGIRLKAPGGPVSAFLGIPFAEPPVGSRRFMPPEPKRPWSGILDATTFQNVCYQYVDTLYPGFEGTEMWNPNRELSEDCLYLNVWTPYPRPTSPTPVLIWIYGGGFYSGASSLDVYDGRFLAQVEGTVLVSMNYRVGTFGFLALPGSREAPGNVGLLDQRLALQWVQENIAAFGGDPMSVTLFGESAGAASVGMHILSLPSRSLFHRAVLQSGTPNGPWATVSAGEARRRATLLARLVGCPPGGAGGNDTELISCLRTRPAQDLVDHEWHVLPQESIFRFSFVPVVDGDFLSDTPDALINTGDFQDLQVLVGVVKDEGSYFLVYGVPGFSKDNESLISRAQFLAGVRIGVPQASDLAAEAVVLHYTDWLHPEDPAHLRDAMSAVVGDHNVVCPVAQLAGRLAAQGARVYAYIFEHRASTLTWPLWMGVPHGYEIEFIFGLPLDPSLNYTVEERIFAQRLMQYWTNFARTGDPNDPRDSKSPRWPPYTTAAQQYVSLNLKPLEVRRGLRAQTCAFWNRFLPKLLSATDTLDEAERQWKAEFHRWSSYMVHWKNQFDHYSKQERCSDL
Nature of the assay: Inhibitory concentration against acetylcholinesterase from rat cortex homogenate by ellman method was determined. (Ellman's reagent forms a yellow product with free thiols.)

In assay [1] the target is Acetylcholinesterase and butyrylcholinesterase (AChE and BChE) (Rattus norvegicus) (UniProt P37136+Q9JKC1). Nature of the assay: Ratio of inhibitory concentration for AChE and BChE. The assay is classed as protein assay.
A further assay has as its target Butyrylcholinesterase (Rattus norvegicus, UniProt Q9JKC1). Description: Inhibitory concentration against butyrylcholinesterase from rat serum.

Acetylcholinesterase and butyrylcholinesterase (AChE and BChE) (Rattus norvegicus), sequence (Q9JKC1 1-597, one chain of several): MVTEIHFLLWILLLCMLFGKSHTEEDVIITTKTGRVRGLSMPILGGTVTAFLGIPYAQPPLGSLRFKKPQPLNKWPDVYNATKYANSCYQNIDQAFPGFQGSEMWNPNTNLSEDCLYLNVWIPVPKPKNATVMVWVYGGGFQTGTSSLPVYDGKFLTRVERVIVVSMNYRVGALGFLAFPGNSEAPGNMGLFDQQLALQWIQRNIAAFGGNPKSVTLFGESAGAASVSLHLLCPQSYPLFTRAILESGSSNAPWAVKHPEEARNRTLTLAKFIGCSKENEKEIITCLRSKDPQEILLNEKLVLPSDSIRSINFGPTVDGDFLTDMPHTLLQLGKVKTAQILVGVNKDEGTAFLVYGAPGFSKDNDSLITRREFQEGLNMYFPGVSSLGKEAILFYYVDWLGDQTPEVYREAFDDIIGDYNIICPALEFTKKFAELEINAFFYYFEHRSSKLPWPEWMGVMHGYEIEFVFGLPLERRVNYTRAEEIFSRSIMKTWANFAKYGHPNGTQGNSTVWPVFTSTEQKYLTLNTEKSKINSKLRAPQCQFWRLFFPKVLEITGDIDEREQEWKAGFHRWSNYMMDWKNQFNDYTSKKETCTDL
Butyrylcholinesterase, sequence (Q9JKC1 whole entry): as the sequence (Q9JKC1 1-597, one chain of several) above

By IC50 is commonly meant the concentration that inhibits the measured activity by half. A low value points to inhibition by little substance. With `CC1=C[C@H]2Cc3nc(O)ccc3[C@@]3(C1)[C@@H]2CCCN3CN1CCN(Cc2ccccc2)CC1`, half-maximal inhibition against Acetylcholinesterase (IC50) required 31.6 µM.
`CC1=C[C@H]2Cc3[nH]c(=O)ccc3[C@@]3(C1)[C@@H]2CCCN3C(=O)CN1CCN(CC(=O)N2CCC[C@@H]3[C@H]4C=C(C)C[C@]32c2ccc(=O)[nH]c2C4)CC1`: the figures for the IC50 against Acetylcholinesterase and at Butyrylcholinesterase were 1.17 µM and more than 184 µM, respectively. Besides, in assay [1], the Selectivity was more than 157.
The compound `CC1=C[C@H]2Cc3nc(O)ccc3[C@@]3(C1)[C@@H]2CCCN3CCN1CCN(Cc2cccnc2)CC1` showed an IC50 on Acetylcholinesterase of 26.7 µM.
At Acetylcholinesterase, `COc1ccc(CN2CCN(CN3CCC[C@@H]4[C@H]5C=C(C)C[C@]43c3ccc(O)nc3C5)CC2)cc1` yielded an IC50 of 10.3 µM.
Consider `CC1=CC2Cc3[nH]c(=O)ccc3[C@@]3(C1)[C@@H]2CCCN3CCN1CCN(CC[N+]2(C(=O)CN)CCC[C@@H]3C4C=C(C)C[C@]32c2ccc(=O)[nH]c2C4)CC1` (stereo partly drawn), for which the half-inhibitory concentration (IC50) against Acetylcholinesterase stood at 0.407 µM; on Butyrylcholinesterase, 192 µM. Further, in assay [1], the Selectivity turned out to be 472.
Taken in the same sequence, the figures for `CC1=C[C@H]2Cc3[nH]c(=O)ccc3[C@@]3(C1)[C@@H]2CCCN3C(=O)CN1CCCN(CC(=O)N2CCC[C@@H]3[C@H]4C=C(C)C[C@]32c2ccc(=O)[nH]c2C4)CC1` were 0.114 µM, 171 µM and 1500.
Consider `CC1=C[C@H]2Cc3nc(O)ccc3[C@@]3(C1)[C@@H]2CCCN3CCN(C)Cc1ccccc1`, for which, at Acetylcholinesterase, inhibition was half-maximal at 66.5 µM (IC50).
Still for that read-out and setting: the result for `CC1=C[C@H]2Cc3nc(O)ccc3[C@@]3(C1)[C@@H]2CCCN3CCN(C)CCc1ccccc1` reads 20.7 µM; that for `CC1=C[C@H]2Cc3nc(O)ccc3[C@@]3(C1)[C@@H]2CCCN3CCN(C)CCCc1ccccc1`, 9.53 µM.
The same measure, in the same setting: the value for `CC1=CC2Cc3[nH]c(=O)ccc3[C@@]3(C1)[C@@H]2CCCN3C(=O)CN(C)CCCc1ccccc1` was 6.19 µM.
Still for that read-out and setting: the value for `CC1=CC2Cc3[nH]c(=O)ccc3[C@@]3(C1)[C@@H]2CCCN3C(=O)CN(C)CCc1ccccc1` was 23.5 µM; that for `CC1=C[C@H]2Cc3nc(O)ccc3[C@@]3(C1)[C@@H]2CCCN3C(=O)CN(Cc1ccccc1)c1ccccc1` was more than 52 µM.
As to `CC1=C[C@H]2Cc3nc(O)ccc3[C@@]3(C1)[C@@H]2CCCN3C(=O)N1CCN(Cc2cccnc2)CC1`, the 50% inhibitory concentration (IC50) against Acetylcholinesterase came to 38.1 µM.
Take `CC1=C[C@H]2Cc3[nH]c(=O)ccc3[C@@]3(C1)[C@@H]2CCCN3C(=O)CN(C)Cc1ccccc1`: the half-maximal inhibitory concentration (IC50) at Acetylcholinesterase turned out to be 50.7 µM.
For `CC1=C[C@H]2Cc3[nH]c(=O)ccc3[C@@]3(C1)[C@@H]2CCCN3CCN1CCCN(CCN2CCC[C@@H]3[C@H]4C=C(C)C[C@]32c2ccc(=O)[nH]c2C4)CC1`, the IC50 on Acetylcholinesterase stood at 0.218 µM; against Butyrylcholinesterase, 125 µM. The Selectivity in assay [1] was 573.
Take `CC1=C[C@H]2Cc3[nH]c(=O)ccc3[C@@]3(C1)NCCC[C@H]23`: the IC50 against Butyrylcholinesterase came out at 157 µM.
As for `CC1=CC2Cc3[nH]c(=O)ccc3[C@@]3(C1)[C@@H]2CCCN3C(=O)CN1CCN(Cc2ccc([N+](=O)[O-])cc2)CC1`, the IC50 at Acetylcholinesterase is 5.58 µM.
The same measure, in the same setting: the value for `CC1=CC2Cc3[nH]c(=O)ccc3[C@@]3(C1)[C@@H]2CCCN3C(=O)CN1CCN(Cc2ccccc2)CC1` was 33.3 µM.
As for `CC1=C[C@H]2Cc3[nH]c(=O)ccc3[C@@]3(C1)[C@@H]2CCCN3CCN(Cc1ccccc1)c1ccccc1`, on Acetylcholinesterase, the IC50 is more than 54 µM.
Compound `COc1ccc(CN2CCN(CC(=O)N3CCC[C@@H]4C5C=C(C)C[C@]43c3ccc(=O)[nH]c3C5)CC2)cc1` yielded an IC50 against Acetylcholinesterase of 5.75 µM.
